# Activity calls are given as the source filed them. The rule behind the calls is not given here.
# Test system: cytotoxicity counter-screen, luminescence read-out
# Test: cell viability loss, luminescent readout – luminescence, cytotoxicity control for HIV fusion inhibitor project, SAR follow-up (AID 435031)
row,Compound,CC50
1,COc1cc(C=NNc2ccc(Cl)c(C(=O)O)c2)ccc1OC(=O)c1ccccc1F,> 100 µM (inactive)
2,Cc1c(Cl)cccc1NS(=O)(=O)c1ccc2c(c1)C1C=CCC1C(c1ccc(C(=O)O)cc1)N2 (stereo unspecified),> 100 µM (inactive)
3,CCOC(=O)c1sc(N2C(=O)C(O)=C(C(=O)c3ccc(C)o3)C2c2cccc([N+](=O)[O-])c2)nc1C (stereo unspecified),> 100 µM (inactive)
4,CCC(C)(C)C1CCc2c(sc(NC(=O)c3ccccc3C(=O)O)c2C#N)C1 (stereo unspecified),22 µM
5,COc1ccc(OC)c(N2C(=O)/C(=C/c3ccco3)C(=O)NC2=S)c1,> 100 µM (inactive)
6,Cc1ccc(S(=O)(=O)Oc2ccc(/C=C3/C(=N)N4C(=NC3=O)SN=C4S(C)(=O)=O)cc2)cc1,91 µM
7,O=C1NC(=S)N(c2ccc(F)cc2)C(=O)/C1=C/c1ccco1,> 100 µM (inactive)
8,CC(C)(C)c1cc(-c2csc(Nc3ccccc3)[n+]2Cc2ccc(C(=O)O)cc2)cc(C(C)(C)C)c1O,13.7 µM
9,O=C(O)CCCN1C(=O)/C(=C/c2ccc(-c3nc4ccccc4s3)o2)SC1=S,> 100 µM (inactive)
10,COc1ccc(C(=O)Oc2ccc(C=NNc3ccc(Cl)c(C(=O)O)c3)cc2OC)cc1,> 100 µM (inactive)
11,O=C1NC(=S)N(c2ccc(F)cc2)C(=O)/C1=C\c1ccoc1,> 100 µM (inactive)
12,O=c1c(=Cc2cc([N+](=O)[O-])cc([N+](=O)[O-])c2O)sc2nc3ccccc3n12,> 100 µM (inactive)
13,N#C/C(=C\c1ccc(OCc2ccc(Cl)cc2)cc1)C(=O)Nc1cccc(C(=O)O)c1,> 100 µM (inactive)
14,CS(=O)(=O)C1=NSC2=NC(=O)/C(=C\c3cccn3-c3ccc(Cl)cc3)C(=N)N21,> 100 µM (inactive)
15,CSc1nnc(-c2ccccc2N=Cc2c(C)[nH]n(-c3ccc4ccccc4c3)c2=O)c(=O)[nH]1,> 100 µM (inactive)
16,COc1cc(/C=N/NS(=O)(=O)c2ccc3ccccc3c2)ccc1OCc1ccc(C(=O)O)cc1,> 100 µM (inactive)

row,Compound,CC50
1,CC1(C)CC(=O)C2=C(C1)c1c(ccc3ccccc13)NC2c1cc([N+](=O)[O-])cc([N+](=O)[O-])c1O (stereo unspecified),> 100 µM (inactive)
2,Oc1c(Cl)cc(Cl)c(Cl)c1Cc1c(O)c(Cl)cc(Cl)c1Cl,18 µM
3,CC(C)S(=O)(=O)C1=NSC2=NC(=O)/C(=C\c3ccc(-c4ccccc4)o3)C(=N)N21,> 100 µM (inactive)
4,O=C(N/N=C/c1c(O)n(C2CCCCC2)c(=S)[nH]c1=O)c1ccccc1O,> 100 µM (inactive)
5,O=C(O)c1ccccc1C(=O)N(Cc1cccc(Oc2ccc(Cl)cc2)c1)[C@H]1CCCc2ccccc21,19 µM
6,CCOC(=O)C1=C(C)N=c2sc(=Cc3ccc(OCC(=O)O)cc3)c(=O)n2C1c1ccc(OC(C)C)cc1 (stereo unspecified),32 µM
7,COc1cc(C=NNc2ccc(Cl)c(C(=O)O)c2)ccc1OC(=O)c1ccc(F)cc1,> 100 µM (inactive)
8,CS(=O)(=O)C1=NSC2=NC(=O)/C(=C\c3ccc(OS(=O)(=O)c4ccccc4)cc3)C(=N)N21,> 100 µM (inactive)
9,CCC(Sc1nc2ccsc2c(=O)n1Cc1ccc(C(=O)O)cc1)C(=O)Nc1ccc(C)c(Cl)c1 (stereo unspecified),> 100 µM (inactive)
10,COc1ccccc1NS(=O)(=O)c1cccc(-n2c(O)c(C=Nc3ccccc3C(=O)O)c3ccccc3c2=O)c1,> 100 µM (inactive)
11,COC(=O)c1sc(-c2ccc(C(C)(C)C)cc2)cc1NC(=O)c1ccccc1C(=O)O,17 µM
12,COc1cc(/C=C2\SC(=O)N(c3ccccc3Cl)C2=O)cc([N+](=O)[O-])c1O,> 100 µM (inactive)
13,O=[N+]([O-])c1cc([N+](=O)[O-])c2oc(-c3ccccc3)c(Br)c2c1O,> 100 µM (inactive)
14,CC(C)S(=O)(=O)C1=NSC2=NC(=O)/C(=C\c3ccc(-c4cccc(C(=O)O)c4)o3)C(=N)N21,> 100 µM (inactive)
15,O=C(O)c1ccccc1N=Nc1c(O)[nH]c2ccc([N+](=O)[O-])cc12,> 100 µM (inactive)

# Source: PubChem BioAssay AID435031 (Sanford-Burnham Center for Chemical Genomics, 2010)
